Test results reported in article PMC6290777, “Inhalation of the prodrug PI3K inhibitor CL27c improves lung function in asthma and fibrosis” (Nature Communications, 2018).

Key:
Assay type in all cases: in vivo, BALB/c mice
[1] = system: OVA-induced chronic allergic asthma; assay: OVA-induced chronic allergic asthma model; details: CL27c 2 mg/ml aerosol or dexamethasone 5 mg/kg
Method: (§1) BALF was performed to obtain leukocytes from alveolar space. The trachea was exposed and a 1.7-mm-outside-diameter polyethylene catheter was inserted. BAL was performed by washing the lungs three-times with three different 500 µl aliquots of PBS. BALF samples were centrifuged at 600 × g for 10 min at 4 °C on a histology glass slide and stained with Diff Quick (MICROPTIC, #DQ-ST). The number of leukocytes and differential counts of different population were obtained evaluating the percentage leukocyte populations over the total cell number.
(§2) Mice were anesthetized with a subcutaneous injection of ketamine and xylazine (130 mg/Kg ketamine and 8.5 mg/Kg xylazine) to maintain spontaneous breathing under anesthesia. Mice were tracheostomized, placed in a body plethysmograph and connected to a computer-controlled ventilator (Forced Pulmonary Maneuver System®, Buxco Research Systems©, Wilmington, North Carolina USA). First, an average breathing frequency of 160 breaths/min was imposed to the anesthetized animal by a pressure-controlled ventilation until a regular breathing pattern and complete expiration at each breathing cycle was obtained. Under mechanical respiration, respiratory flow and airway pressure were measured to compute dynamic compliance (Cdyn) and lung resistance (RL). To measure the TLC, pressure–volume maneuvers were performed, where lungs were inflated to a standard pressure of +30 cm H2O and then let slowly exhale until a negative pressure of −30 cm H2O was reached. To measure the FEV Fast-Flow Volume maneuvers was performed. In this maneuver, lungs were first inflated to +30 cm H2O (TLC) and, immediately, a negative pressure (−30 cm H2O) was applied in order to enforce expiration. To evaluate AHR, the same mice used in previous maneuvers (basal condition) received Metacholine, 1 mg/Kg (Acetyl-β-methylcholine chloride, A-2251, Sigma-Aldrich St.Louis, MO,USA) i.v., and 20 sec after, a new set of maneuvers were conducted to assess RL changes. Suboptimal maneuvers were rejected and for each test in every single mouse at least three acceptable maneuvers were conducted to obtain a reliable mean for all numeric parameters.
On day 1, BALB/c mice received systemic immunization by subcutaneous injection of 10 µg of chicken egg ovalbumin (OVA grade V, >98% pure; Sigma, St Louis, MO) diluted in 2 mg/mL Al(OH)3 followed by a booster injection at the day 14 (described in fig. 3). Nasal challenges were performed starting at the day 28, by inhalational exposure to aerosolised ovalbumin (1% ovalbumin in saline 0,9%) for 20 min per day, in alternated days during 16 days (day 28, 30, 32, 34, 36, 38, 40, 42 and 44). At the same time, mice received daily treatment from day 28 to 44 with CL27c (2 mg/ml dissolved in 0.5 % tylaxopol/saline solution, aerosolized for 30′) or vehicle (0.5% tyloxapol/saline solution, aerosolized for 30′), or dexamethasone (5 mg/kg i.p. injection). Untreated control groups included mice challenged with PBS alone. On day 45, mice were sacrificed, and samples were collected for further analysis.
(§3) IL-5, IL-13, eotaxin, TGF-β, KC, IL-17A, and MCP-1 levels in the BALF and anti-OVA IgE levels in serum were measured by ELISA technique using commercial DuoSet kits R&D Systems according to the instructions of the manufacturer. Results were expressed in levels of cytokines per ml of […] (pg/ml) or arbitrary units (A.U.).
The left lung was removed and fixed in 4% neutral phosphate-buffered formalin (pH 7.4)[10]. The tissues were dehydrated gradually in ethanol, embedded in paraffin, cut into 4 µm sections, stained with H&E, Gomori’s trichrome and periodic acid schiff (PAS), and examined under light microscopy by a pathologist in a double blinded manner. Images of lung sections were captured with a digital camera (Optronics DEI-470) connected to a microscope (Olympus IX70) with a magnification of ×40 or ×100. […]

[2] = system: glucocorticoid-resistant neutrophilic asthma; assay: Glucocorticoid-resistant asthma model; details: CL27c 2 mg/ml aerosol; dexamethasone 5 mg/kg i.p.
Method: as §1, §2, §3
On day 1 BALB/c mice received systemic immunization by subcutaneous injection of 20 µg of chicken egg ovalbumin (OVA grade V, >98% pure; Sigma, St Louis, MO) in saline, emulsified in 75 µL CFA (Complete Freund’s Adjuvant; Sigma-Aldrich) (Figure 5)[52]. On days 25–28 mice were exposed to aerosolised ovalbumin (1% in saline) for 20 min per day. Mice were exposed during 30 min to aerosolized CL27c (2 mg/ml dissolved in 0.5 % tylaxopol/saline solution) or vehicle (0.5% tyloxapol/saline solution), or to systemic treatment with dexamethasone (5 mg/kg i.p. injection). Untreated control groups included mice challenged with PBS alone. On day 29, mice were sacrificed, and samples were collected for further analysis.
The left lung was removed and fixed in 4% neutral phosphate-buffered formalin (pH 7.4)[10]. The tissues were dehydrated gradually in ethanol, embedded in paraffin, cut into 4 µm sections, stained with H&E, Gomori’s trichrome and periodic acid schiff (PAS), and examined under light microscopy by a pathologist in a double blinded manner. Images of lung sections were captured with a digital camera (Optronics DEI-470) connected to a microscope (Olympus IX70) with a magnification of ×40 or ×100. Inflammation was scored according to modification of existing protocols[53] and to the histopathology criteria reported in Supplementary Table 4.

[3] = system: OVA-induced acute allergic asthma; assay: OVA-induced acute allergic asthma model; details: systemic treatment, i.p.
Method: On Days 1 and 14, BALB/c mice (6–8 weeks) received an intraperitoneal injection (i.p.) of a solution containing 0.5 mg/ml OVA and 5 mg/ml Alum (described in Fig. 2). Untreated controls were injected with a solution of 5 mg/ml Alum. […] Untreated control groups included mice challenged with PBS alone. On day 29, mice were sacrificed, and samples were collected for further analysis.
as §1, §3
Immunohistochemistry for CD18 was performed using the streptavidin-biotin-peroxidase method in formalin-fixed, paraffin-embedded tissue sections (5 µm thick) mounted on poly-L-lysine-coated microscope slides. Lung cross-sections were deparaffinized and rehydrated through xylene and graded alcohols. After antigen retrieval, endogenous peroxidase was blocked (15 min) with 3% (v/v) hydrogen peroxide and washed in phosphate-buffered saline (PBS). Sections were incubated overnight (4 °C) with primary rabbit anti-CD18 antibody (Acris Antibodies GmbH, Germany, Cat. Number B0842-1) diluted 1:400 in PBS plus bovine serum albumin (PBS-BSA) or rabbit anti/PAkt (S473) diluted 1:100 in PBS/BSA. The slides were then incubated with biotinylated goat anti-rabbit antibody (Dako Agilent Pathology Solution, USA) diluted 1:1000 in PBS/BSA. After washing, the slides were incubated with avidin-biotin-horseradish peroxidase conjugate (Dako Agilent Pathology Solution, USA) for 30 min, according to the manufacturer’s instructions. CD18 and PAkt-positive cells were visualized with the chromogen 3,3′-diaminobenzidine (DAKO liquid DAB + substrate chromogen system, CA, USA). Slides were counterstained with Harry’s hematoxylin, dehydrated in a graded alcohol series, cleared in xylene, and cover slipped.
Lung, liver, and heart samples were collected for western blot detection of akt phosphorilation levels. Protein samples were resolved by 10% SDS-PAGE and transferred on to PVDF (Immobilon™-P) membranes. The membranes were blocked with 5% BSA in 1x TBS with 0.3% Tween 20 for 30 min at […]. Then, the membranes were incubated overnight at 4 °C with primary antibodies (phosphorylated Akt serine 473, 1:1000, Cell Signaling Technology, Cat. Number 4060) and 1 h with HRP-conjugated secondary antibody (1:10000). The blots were visualized in ECL solution for 1 min and images were captured on Luminescent Image Analyser (ChemiDoc Imaging Systems, Bio-Rad Laboratories, USA). For loading control, the blots were striped and reassessed with pan Akt (1:1000) antibody. For quantification, specific phosphorylation was calculated as the ratio of signals for phosphorylated Akt to the signal of total Akt detected. Values of unstimulated samples were set to 1.0. Uncropped scans of the most important blots are provided as a supplementary figure in the Supplementary Information (Supplementary Fig. 15).

For `C[C@@H]1C[C@H]2[C@@H]3CCC4=CC(=O)C=C[C@]4(C)[C@@]3(F)[C@@H](O)C[C@]2(C)[C@@]1(O)C(=O)CO` [Dexamethasone, reference compound], the “accumulation of inflammatory cells in peribronchial and perivascular spaces” value [1] was “significantly decreased”, the “lung function: lung resistance (RL) and dynamic compliance (Cdyn)” value [1] was “normalize lung function” and the “peribronchial fibrosis (fibrotic airway remodeling)” value [1] was “significantly reduced”. For the same compound, the “histopathology: overall score of lung damage / tissue inflammation” value [2] was “failed to provide an effect” and the “BALF accumulation of inflammatory cells” value [3] was “significantly reduced this infiltration”.
